Test results from patent US20070299083A1, “6-Methoxy-8-[4-(1-(5-fluoro)-quinolin-8-yl-piperidin-4-yl)-piperazin-1-yl]-quinoline hydrochloric acid salts” (Wyeth, priority 2006, published 2007).

Experiment: solubility in aqueous media
Format: physicochemical
Conditions: even in the presence of surfactants

COc1cc(N2CCN(C3CCN(c4ccc(F)c5cccnc45)CC3)CC2)c2ncccc2c1 [free base, 6-methoxy-8-[4-(1-(5-fluoro)-quinolin-8-yl-piperidin-4-yl)-piperazin-1-yl]-quinoline]
solubility: ~0.4 µg/mL
